# Experimental data published in US6207648A, “Methods of using cytochrome P450 reductase for the enhancement of P450-based anti-cancer gene therapy” (priority 1998, dated 2001).
# How the values were obtained:
# [1] = test system: 9L/P450 gliosarcoma cells; test: Growth inhibition assay of 9L/P450 cells, crystal violet (Example 2); format: cell-based, rat; conditions: for inhibition at 1000 µM: Rattus norvegicus, 96 h, 1 mM, 4 days
# Procedure: Control cells for each cell line received no drug treatment. Relative cell number at the end of the experiment was determined by crystal violet staining as described below in "Material and Methods" of Example 2. Data (mean±SD, n=3) are based on the crystal violet absorbance in drug-treated plates as a percent of the corresponding drug-free controls.
# Briefly, culture dishes were washed once with phosphate buffered saline (PBS), stained for 10 minutes with crystal violet (1.25 g crystal violet (Sigma) dissolved in 500 ml containing 50 ml of 37% formaldehyde and 450 ml methanol), and then washed with PBS, twice for 20 minutes per wash. Absorbance values were measured in an SLT Spectra microtiter plate reader using a 595 nm filter. Background absorbance determined from wells containing culture media alone was subtracted from each value.
# [2] = test system: 9L gliosarcoma cells (parental, CYP2B1+, CYP2B1+ RED+++); test: In vitro colony formation cytotoxicity assay (Example 1); format: cell-based, rat
# From the text: FIGS. 2A and 2C depict the results of a colony formation cytotoxicity assay.
# FIG. 3A depicts results from a colony formation cytotoxicity assay. […] The survival fraction is expressed as the number of colonies in each treatment group compared to the untreated control.
# Corresponding controls received no drug treatment.
# [3] = test system: 9L/pBabe, 9L/2B6/reductase and 9L/2C18-Met/reductase tumors in scid mice; test: Tumor growth delay assay in scid mice; format: in vivo, mouse
# From the text: FIGS. 19A-19D are graphs depicting the results of a tumor growth delay assay in severe combined immunodeficiency (scid) mice bearing 9L/pBabe, 9L/2B6/reductase, and 9L/2C18-Met/reductase solid tumors. Shown are the effects of CPA treatment on growth of 9L/pBabe tumors growing on the left flank of scid mice that also bear either a 9L/2B6/reductase tumor (FIG. 19A) or a 9L/2C18-Met/reductase tumor ((FIG. 19C)) on the right flank. Also shown are the effects of CPA on growth of 9L/2B6/reductase (FIG. 19B) or 9L/2C18-Met/reductasetumors ((FIG. 19D)) in these same mice. Tumor areas were measured twice a week with Vernier calipers. The arrows above the x-axis in each panel indicate the days on which CPA was given by intraperitoneal (i.p.) injection at 150 mg/kg, as described in the "Materials and Methods" section of Example 2. Data shown is mean tumor area (mm^2)±SEM for n=4 tumors per treatment group. Mice not treated with CPA died earlier than the CPA-treated mice, as indicated by the earlier decrease in number of remaining mice from n =4 (initial number of mice/group) to n=3, 2, or 1. Open circles indicate CPA-treated mice; closed circles indicate saline controls.
# Tumor Growth Delay Assay: Six week old male ICR/Fox Chase/outbred immunodeficient scid mice (Paine-Murrieta, G. D., et al., Cancer Chemother Pharmacol. 40:209-214 (1997)) (Taconic Farms, Germantown, N.Y.) weighing 26-31g were given subcutaneous tumor cell injections to form solid tumors. Tumor cells were grown in culture to approximately 75% confluency, harvested by trypsin digestion, washed in PBS, resuspended in fetal bovine serum-free DMEM at a concentration of 8×10^6 cells/ml and kept on ice. Mice were shaved on both hind flanks, and then were injected subcutaneously on the left flank with 4×10^6 9L/pBabe tumor cells, and on the right flank with 4×10^6 of either 9L/2B6/reductase or 9L/2C18-Met/reductase tumor cells (8 mice/group). Tumor cell injections were in a volume of 0.5 ml of serum-free DMEM using a 1/2 inch 27 g needle and 1 ml syringe. Tumor growth was monitored twice a week using Vernier calipers (Manostat Corp., Switzerland) to measure tumor area. On days 26 and 27 after tumor cell inoculation, 4 animals from each group (four 9L/pBabe:9L/2B6/reductase mice and four 9L/pBabe:9L/2C18-Met/reductase mice) received daily intraperitoneal injections of CPA at 150 mg/kg dissolved in 0.3 ml of 0.9% NaCl. The remaining animals received saline injections. Average tumor areas ranged from 80-145 mm^2 at the time of CPA injection. Mice were given a second course of CPA treatment (150 mg/kg×2 daily injections) beginning 24-29 days after the first CPA injection, as indicated in each experiment.
# [4] = test system: CYP2B1; test: Fluorometric assay of 4-hydroxy-CPA in culture medium of 9L tumor cells (Example 1); format: in vitro ADME, rat; conditions: 2 mM CPA, 24 h
# Procedure: FIG. 7 is a bar graph showing that higher 4-hydroxy-CPA levels are produced by P450 and RED-containing tumor cells compared to tumor cells containing P450 alone. The parental CYP2B1^+ cell lines P3 and P17, and their corresponding RED overexpressing derivatives PR11 and PR7 were plated confluent (1.5×10^6 cells per 30 mm culture dish) so that the cell number remained relatively constant during the course of the experiment. Cells were incubated for 24 hours with 2 mM CPA in the presence of 5 mM semicarbazide. Medium was collected and then assayed for 4-hydroxy-CPA using a fluorometric assay, as described below in the "Materials and Methods" section of Example 1. Limit of detection in this assay was approximately 1 μM 4-hydroxy-CPA. The higher CPA 4-hydroxylase activity of line P 17 compared to line P3 is consistent both with the higher cytotoxic potential of CPA-conditioned media from P17 cells (FIG. 5), and with the greater cytotoxicity of CPA toward the P 17 cells in vitro (FIGS. 2, 3) and in vivo (FIG. 9, below).
structure (smiles),measurement,setting,value
"O=P1(N(CCCl)CCCl)NCCCO1 (stereo not shown) [CPA, cyclophosphamide]",effect of P450 reductase overexpression on cytotoxicity,"[1]; 9L/2B6 and 9L/2C18-Met cells, FIG. 15",markedly increased the cytotoxicity
same,"cytotoxicity with RED transduction alone, in absence of P450","[1]; 9L/RED, FIG. 15",did not confer CPA or IFA cytotoxicity
same,sensitivity of P450-negative cells,"[1]; 9L/wt and 9L/pBabe, millimolar concentrations",insensitive
same,inhibition at 1000 µM,[1]; 9L/2B6,> 95%
same,inhibition at 1000 µM,[1]; 9L/2C9 and 9L/2C18-Thr,~60%
same,inhibition at 1000 µM,[1]; 9L/2C19 and 9L/2C18-Met,75 to 85%
same,inhibition at 1000 µM,[1]; 9L/3A4,~90%
same,efficiency of P450 genes in chemosensitizing 9L cells to CPA,[1]; six human P450 genes,2B6>2C18-Met~3A4>others
same,sensitization of 9L cells to CPA by RED overexpression alone,[2]; line 9L-R (RED without CYP2B1),did not sensitize 9L tumor cells
same,cytotoxic response of CYP2B1+ cells on RED overexpression,"[2]; lines PR11, PR7 vs P3, P17, colony formation assay",significantly enhanced the cytotoxic response
same,growth delay of 2B6 and P450 reductase-transduced tumors,[3]; 150 mg/kg i.p.,> 50 days
same,growth inhibition of 9L/2C18-Met/reductase tumors,[3]; 150 mg/kg i.p.,"significant, albeit incomplete growth inhibition"
same,growth delay for 9L/pBabe tumors,"[3]; 2B6 experiment, first cycle 150 mg/kg i.p. x2, days 26 and 27",no growth delay
same,growth delay effect against 9L/pBabe control tumors,"[3]; 2B6 experiment, second cycle",modest growth delay effect
same,growth delay of 9L/pBabe control tumors,[3]; 2C18-Met experiment,5-6 days
same,growth delay in RED tumors,[3]; 9L/2B6/RED and 9L/2C18-Met/RED,25 to 50 days
same,host toxicity,[3]; CPA-treated scid mice,no apparent increase in host toxicity
same,growth delay without P450,[3]; control 9L tumors,5 to 6 days
same,growth of 9L/2B6/reductase tumors,[3]; first cycle 150 mg/kg i.p. x2,fully blocked
same,duration of anti-tumor effect in 9L/2B6/reductase tumors,[3]; second cycle,≥ 75 day after tumor inoculation
same,4-hydroxylated metabolites in 9L parental cells,[4],corresponds to the limit of detection
same,levels of 4-hydroxy-CPA formed by CYP2B1+ RED+++ vs parental CYP2B1+ cell lines,[4]; 5 mM semicarbazide,up to 3 fold
